Values of other authors, collected in patent US9427470B2, “Hyaluronic acid stabilizer” (priority 2012, dated 2016).

Target: CD44 (Homo sapiens, UniProt P16070)
Conditions: Aruffo, et al., 1990

CD44, sequence (P16070 21-742, species assumed): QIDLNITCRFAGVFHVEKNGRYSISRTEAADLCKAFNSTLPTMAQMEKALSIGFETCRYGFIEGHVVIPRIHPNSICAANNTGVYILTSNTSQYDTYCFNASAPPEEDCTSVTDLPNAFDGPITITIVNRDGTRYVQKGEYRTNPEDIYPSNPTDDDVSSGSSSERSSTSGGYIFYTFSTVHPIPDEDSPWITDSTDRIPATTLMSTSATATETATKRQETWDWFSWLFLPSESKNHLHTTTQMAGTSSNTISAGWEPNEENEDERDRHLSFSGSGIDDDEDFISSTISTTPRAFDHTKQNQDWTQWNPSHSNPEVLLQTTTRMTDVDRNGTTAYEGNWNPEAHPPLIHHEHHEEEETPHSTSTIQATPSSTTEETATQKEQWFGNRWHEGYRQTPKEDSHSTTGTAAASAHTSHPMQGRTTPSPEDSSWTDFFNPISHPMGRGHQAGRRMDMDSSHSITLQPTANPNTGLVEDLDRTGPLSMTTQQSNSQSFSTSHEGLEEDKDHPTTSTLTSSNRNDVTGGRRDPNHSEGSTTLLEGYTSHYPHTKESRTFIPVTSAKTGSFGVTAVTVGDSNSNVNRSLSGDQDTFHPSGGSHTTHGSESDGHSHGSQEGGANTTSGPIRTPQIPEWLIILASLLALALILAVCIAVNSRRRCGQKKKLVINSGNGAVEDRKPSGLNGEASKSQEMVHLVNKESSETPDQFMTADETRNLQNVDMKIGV

- strength of bond to CD44 relative to chondroitin sulfate: about 100 times
Substance: Hyaluronic acid [HA]
